Experimental data reported in patent publication US20110223671A1, “Methods for using positively and negatively selectable genes in a filamentous fungal cell” (priority 2008, published 2011).

Columns and labels:
Assay type in all cases: cell-based
[1] = system: Fusarium venenatum WTY842-1-11; assay: Sensitivity testing of Fusarium venenatum WTY842-1-11 to FdU (plug growth on VNO3RLMT); settings: 14 days
Method: For a thymidine kinase gene (tk) to be useful as a negatively selectable marker, a fungus must be […] to rather high concentrations of the nucleoside analog 5-fluoro-deoxyuridine (FdU). In order to ascertain the degree of sensitivity of Fusarium venenatum WTY842-1-11 to FdU, a one week old culture of Fusarium venenatum WTY842-1-11 was prepared by plating a colonized agar plug of the strain taken from a 10% glycerol stock, which had been stored at −140° C., onto a VNO3RLMT plate and incubating in a ChexAll Instant Seal Sterilization Pouch (Fisher Scientific, Pittsburgh, Pa., USA) for 7 days at 26-28° C. After 7 days plugs were cut sub-marginally from the one week old culture and placed face down on VNO3RLMT medium supplemented with different concentrations of FdU (0 to 500 μM) (Sigma Chemical Co., St. Louis, Mo., USA) in 6 well plates. The plates were incubated at 26-28° C. in open ZIPLOC® bags (S.C. Johnson Home Storage, Inc., Racine, Wis., USA) for 14 days, after which the extent of growth at each FdU concentration was recorded.

[2] = system: Fusarium venenatum WTY1449-03-03 (bar+, tk+); assay: Growth of spores of bar+, tk+ strain on FdU- and uridine-supplemented VNO3RLMT plates; settings: 6 days, 28° C.
Method: To this end the bar+, tk+ strain Fusarium venenatum WTY1449-03-03 was revived on VNO3RLMT-BASTA™ plates (as described in Example 1) and induced to produce spores as described in Example 5. After harvesting and washing, the spores were plated (50,000 spores per 14 cm diameter plate) to FdU-supplemented VNO3RLMT plates containing 50 μM FdU and varying concentrations of uridine (0.1-1 mM). These plates were incubated at 28° C. in ChexAll Instant Seal Sterilization Pouches for 6 days, after which they were evaluated for growth.

[3] = system: Fusarium venenatum EmY1154-46-4.3 (pyrG-deleted); assay: Germination efficiency of spores of pyrG-deleted strain on uridine- and FdU-supplemented media
Method: Germination efficiency of spores from the pyrG-deleted Fusarium venenatum strain EmY1154-46-4.3 on uridine- and FdU-supplemented media was tested. Spores of Fusarium venenatum EmY1154-46-4.3 were generated as described in Example 5 using RA medium supplemented with 10 mM uridine. Fifty spores in a volume of 200 μl were aliquoted to each of 45 VNO3RLMT plates (14 cm diameter) supplemented with 0, 25, or 50 μM FdU and 0, 0.01, 0.05, 0.1, or 0.25 mM uridine. Triplicate plates of each combination of FdU and uridine were set up and incubated in ChexAll Instant Seal Sterilization Pouches at 26° C. for 10 days.

[4] = system: Fusarium venenatum WTY1449-3-3 (tk+); assay: Reconstruction experiment, growth on FdU-supplemented minimal media, tk+ strain; settings: 50 μM FdU
Method: (§1) To determine whether very low uridine concentrations could confer resistance to FdU in a tk+ strain, a reconstruction experiment was performed. The tk+ strain Fusarium venenatum WTY1449-3-3 and the tk− strain Fusarium venenatum WTY1449-9-1 were used. Spores of each strain were induced and plated at 50 spores per plate (Fusarium venenatum WTY1449-9-1) or 50,000 spores per 14 cm diameter plate (Fusarium venenatum WTY1449-3-3). In addition, a combination of WTY1449-3-3 and WTY1449-9-1 spores, […], were mixed and plated. All plates contained VNO3RLMT supplemented with 50 μM FdU. The uridine concentration in the plates was 1, 0.5, 0.25, or 0.1 mM. Each treatment was performed in triplicate.
(§2) Colonies appearing on the plates on which mixtures of tk+ and tk− spores had been plated were sub-cultured to fresh plates of VNO3RLMT medium supplemented with 50 μM FdU (NO uridine). An equivalent number of samples were also sub-cultured from the background growth (3 colonies per mixed plate) to VNO3RLMT+50 μM FdU (No uridine). In addition, colonies and background growth were sub-cultured from pure tk− plates and pure tk+ plates to plates of VNO3RLMT+50 μM FdU (no uridine). […]

[5] = system: Fusarium venenatum WTY1449-9-1 (tk-); assay: Reconstruction experiment, growth on FdU-supplemented minimal media, tk- strain; settings: 50 μM FdU
Method: as §1, §2

Question: For `O=c1[nH]c(=O)n([C@H]2C[C@H](O)[C@@H](CO)O2)cc1F` [FdU, 5-fluoro-deoxyuridine], which “sensitivity (extent of growth) to FdU” value ([1]; FdU 0 to 500 μM, VNO3RLMT, 26-28° C.) is on record?
Answer: insensitive

Question: And the “FdU concentration at which growth was slightly reduced” value ([1]; compared to concentrations of 50 μM and below)?
Answer: greater than 100 μM

Question: What about the growth ([2]; 50 μM FdU plus uridine 0.1-1 mM) of the same molecule?
Answer: extensive growth

Question: What about the growth ([2]; 50 μM FdU, without uridine) of the same molecule?
Answer: no growth

Question: What about the spore germination frequency ([3]; 25 and 50 μM FdU, uridine 0.1 mM, 75% in the absence of FdU) of the same molecule?
Answer: approximately 50%

Question: What about the spore germination ([3]; 25 or 50 μM FdU, uridine 0.01 mM, 10 days, 26° C.) of the same molecule?
Answer: could not germinate

Question: What about the growth ([4]; uridine 0.1-1 mM plates) of the same molecule?
Answer: grew as a uniform haze

Question: What about the growth after sub-culture ([4]; uridine-deficient media) of the same molecule?
Answer: could absolutely not grow

Question: What about the growth ([5]; all concentrations of uridine and medium lacking uridine) of the same molecule?
Answer: grew well

Question: What about the growth after sub-culture ([5]; uridine-deficient media) of the same molecule?
Answer: grew normally
